Assay results taken from patent US20030236306A1, “Stabilized formulations of alpha adrenergic receptor antagonists and the uses thereof” (priority 2002, published 2003).
“Also recorded” adds a separate entry of the source. Structures can show the parent of a compound that is named as a salt.

Tests used:
[1] = Tonicity testing by vapor pressure osmometer; format: physicochemical; settings: 0.5 mg/ml disodium EDTA, pH 3.5
From the text: A vapor pressure osmometer (Westcore Model 5500) was used to measure the osmolarity of the solutions as well as a control of Normal Saline solution (0.9% sodium chloride, USP). The tonicity of the phentolamine solutions was represented by osmolarity. The measured osmolarity was plotted against d-mannitol concentration. A linear relationship was obtained between the osmolarity and d-mannitol concentration. The concentration of d-mannitol required to achieve the same osmolarity as the Normal Saline solution was calculated for the 10 or 50 mM sodium acetate buffered solution.

[2] = Effect of sodium acetate buffer concentration on stability, pH 3.5, 60° C.; format: physicochemical
Procedure: (§1) The drug is monitored at a detection wavelength of 232 nm.
Tightly sealed glass vials containing the test solutions were placed in an oven at 40° C. or 60° C. All samples were stored in the dark. Aliquots were removed at designated time points for HPLC analysis and pH measurement.
In conjunction with HPLC analysis, pH was measured. The measurement was performed using the same samples as used for the HPLC analysis. The pH meter was calibrated using pH 4.00 and 7.00 buffer standards prior to each measurement.
Samples were incubated at 60° C. with scheduled testing performed at day 0, 2, 7, and 14. The various buffer concentrations were prepared by diluting the 50 mM buffer with water and re-examining the pH value to determine if the pH 3.5 was constant. Measurements of pH were performed after HPLC analysis of the samples.

[3] = systemic doses, usually with marked hypotensive episodes; cited from earlier work
[4] = Wide-range pH-stability profiling at 40° C.; format: physicochemical; settings: 0.1 mg/ml, pH 2-8, 50 mM phosphate or acetate, FIG. 1
Procedure: as §1
All samples were stored in the dark.
The phosphate buffers were prepared by adding phosphoric acid (3.40 ml) to de-ionized (DI) water, adjusting the pH with 2 N NaOH, and bringing the volume to 1 L in a volumetric flask. The acetate buffers were prepared by adding acetic acid (2.95 ml) to water, adjusting the pH value with 2 N NaOH, and bringing the volume to 1 L in a volumetric flask.
Measurements were performed for pH after samples had been analyzed by HPLC.
In all stability studies, glass serum vials with rubber closures and flip-top seals were used for storage of the samples to minimize fluid loss. The weights of samples were measured at the beginning of the experiment, prior to sampling for analysis, and after resealing the vials to monitor for any weight loss due to heating. No significant weight loss was observed.
At each pH, the concentration was divided by the corresponding initial concentration (day 0) to obtain the percent recovery. The percent recovery was plotted against time for calculation of first-order rate kinetics. The slope of each pH line was calculated as the rate constant and plotted against pH to obtain a wide-range pH-stability profile.

[5] = system: local anesthetic containing an alpha adrenergic receptor agonist; settings: solution of 0.05 mg/ml; cited from earlier work
[6] = system: local anesthesia by 2% polocaine (mepivacaine hydrochloride) with levonordefrin; assay: Reversal of local anesthesia by LARA versus saline vehicle, bilateral injection in human subjects; format: in vivo; settings: three subjects, 0.05 mg/ml phentolamine mesylate (0.08 mg)
Procedure: An injection of the physiological saline vehicle (without phentolamine mesylate) served as the control. […] This was followed by injection of the phentolamine mesylate containing local anesthetic reversal agent (LARA) into one side of the oral cavity, and injection of the saline vehicle (control) solution into the opposite side of the oral cavity. The time to reversal of the local anesthetic effect on both sides was then recorded to determine whether there is a difference between the two sides.
The local anesthetic used was 2% polocaine (mepivacaine hydrochloride) with levonordefrin (1:20,000=0.05 mg/ml) (levonordefrin injection, USP) (Astra USA, Inc., Westborough, Mass. 01581). Levonordefrin is a sympathomimetic amine with a pharmacological profile similar to that of epinephrine, but with a lower potency.
Three healthy, male human subjects, age 34-50, volunteered to have local anesthetic injected in the mouth bilaterally under the lip in an easily repeatable location. The exact time of each injection was recorded. The position chosen was above (apical) the prominence of the root of the upper cuspid teeth. This is a common site selected to numb the cuspids, lateral incisors and upper lip. The volume of the local anesthetic injected was 1.7+0.1 ml on each side of the mouth. […]

Calculated % Mannitol for Isotonicity ([1]; 10 mM sodium acetate): 5.03%
Calculated % Mannitol for Isotonicity ([1]; 50 mM sodium acetate): 4.39%
Measured Osmolality ([1]; 2% Mannitol, 10 mM sodium acetate): 176 mmol/kg
Measured Osmolality ([1]; 2% Mannitol, 50 mM sodium acetate): 193 mmol/kg
Measured Osmolality ([1]; 3% Mannitol, 10 mM sodium acetate): 213 mmol/kg
Measured Osmolality ([1]; 3% Mannitol, 50 mM sodium acetate): 234 mmol/kg
Measured Osmolality ([1]; 4% Mannitol, 10 mM sodium acetate): 253 mmol/kg
Measured Osmolality ([1]; 4% Mannitol, 50 mM sodium acetate): 276 mmol/kg
pH ([2]; Sodium Acetate 0 mM (un-buffered), Day 0): 3.6
pH ([2]; Sodium Acetate 0 mM (un-buffered), Day 2): 4.4
pH ([2]; Sodium Acetate 0 mM (un-buffered), Day 7): 5.1
pH ([2]; Sodium Acetate 0 mM (un-buffered), Day 14): 5.3
pH ([2]; Sodium Acetate 5 mM, Day 0): 3.5
pH ([2]; Sodium Acetate 5 mM, Day 2): 3.8
pH ([2]; Sodium Acetate 5 mM, Day 7): 3.8
pH ([2]; Sodium Acetate 5 mM, Day 14): 3.8
pH ([2]; Sodium Acetate 10 mM, Day 0): 3.5
pH ([2]; Sodium Acetate 10 mM, Day 2): 3.7
pH ([2]; Sodium Acetate 10 mM, Day 7): 3.8
pH ([2]; Sodium Acetate 10 mM, Day 14): 3.7
pH ([2]; Sodium Acetate 50 mM, Day 0): 3.5
pH ([2]; Sodium Acetate 50 mM, Day 2): 3.6
pH ([2]; Sodium Acetate 50 mM, Day 7): 3.6
pH ([2]; Sodium Acetate 50 mM, Day 14): 3.6
SMILES: Cc1ccc(N(CC2=NCCN2)c2cccc(O)c2)cc1 [Phentolamine Mesylate, phentolamine mesylate]
side effects reported in package insert [3]: Myocardial infarction, cerebrovascular spasm, and cerebrovascular occlusion have been reported
wide-range pH-stability profile (rate of degradation) [4]: significant increase in rate of degradation was observed at pH above 7; also recorded: samples prepared in acetate buffers appeared to be more stable than their counterparts in the phosphate buffers
reversal of local anesthetic effect [5]: can rapidly reverse the effect of a local anesthetic
side-effects [6]: no side-effects of any kind
